# In publication PMC10999543, “Identification of kinase modulators as host-directed therapeutics against intracellular methicillin-resistant Staphylococcus aureus” (Frontiers in Cellular and Infection Microbiology, 2024):
# Tests used:
# intracellular MRSA = assay type: cell-based, Staphylococcus aureus; settings: for %GFP+ rep 1 / %GFP+ rep 2 / %GFP+ rep 3: PKIS compound screen raw data; for %GFP+ rep 1 / %GFP+ rep 2 / %GFP+ rep 3 / z-scoreMRSA+ mean / z-scoreMRSA+ rep 1 / z-scoreMRSA+ rep 2 / z-scoreMRSA+ rep 3: MRSA-infected HeLa cells; for %GFP+ rep 1 / z-scoreMRSA+ rep 1: replicate 1; for %GFP+ rep 2 / z-scoreMRSA+ rep 2: replicate 2; for %GFP+ rep 3 / z-scoreMRSA+ rep 3: replicate 3; for z-scoreMRSA+ mean / z-scoreMRSA+ rep 1 / z-scoreMRSA+ rep 2 / z-scoreMRSA+ rep 3 / hit / effect: PKIS compound screen; for z-scoreMRSA+ mean: mean of 3 replicates; for hit: Yes/No call (effect without cell death); for effect: Yes/No call on z-scoreMRSA+
# Procedure: (§1) The cells were resuspended in cell culture medium without antibiotics, seeded with 10,000 cells/well into Costar flat-bottom 96-well plates (Corning, Amsterdam, the Netherlands), and were incubated overnight at 37°C/5% CO2. The next day, the bacteria were centrifuged at ≥1800 g for 15 min and resuspended in cold PBS + 5 mM ethylenediaminetetraacetic acid (EDTA). The number of CFUs present in the bacterial suspension was estimated from the optical density at 600 nm (OD600) by assuming 8x10^8 CFUs to be present in a bacterial suspension with OD600 = 1, based on prior titrations. The bacterial suspension was diluted in cell culture medium without antibiotics and added to the cells. Accuracy of the multiplicity of infection (MOI) was validated by plating serial dilutions of the MRSA inoculums on Difco TS agar plates (BD Biosciences). The calculated mean MOI throughout all experiments was 6.8 ± 4.6 (mean ± SD). Infected cells were centrifuged for 3 min at 150 g and incubated for 1 hour at 37°C/5% CO2. Next, the cells were incubated with fresh cell culture medium supplemented with 30 µg/ml gentamicin sulphate (Lonza BioWhittaker, Basel, Switzerland) for 15 min at 37°C/5% CO2 to kill residual extracellular bacteria. Infected cells were incubated overnight at 37°C/5% CO2 in cell culture medium in the presence of kinase inhibitors and 5 µg/ml gentamicin sulphate-containing medium to prevent the growth of extracellular bacteria. The solvent of the compounds, DMSO, was used at equal % v/v as a negative control. For the screen, each compound was tested in triplicate, on separate cell culture plates, resulting in triplicate values for each kinase inhibitor.
# (§2) HeLa cells were harvested by trypsinization and fixed with 1% paraformaldehyde. Samples were measured on a FACSLyric with HTS extension (BD Biosciences). Flow cytometry data were analysed using FlowJo version 10 (TreeStar, Ashland, OR, USA). HeLa cells positive for GFP were gated to calculate the percentage of MRSA-infected cells. The cell count was used as surrogate readout of cell viability.
# To identify potential “hit” compounds, the flow cytometry data were used to calculate standard z-scores using z = (x-μ)/σ – zneg, where x is total event count or the percent of GFP-positive cells from a single well, μ is the mean from wells of the plate, σ is the standard deviation of the plate and zneg is the mean z-score of the negative control of the plate (i.e., DMSO) ([Korbee et al., 2018]). To minimize the possibility that the presence of extreme values on a plate affected the z-scores, raw values that deviated two-fold from the negative controls were excluded when calculating plate means and standard deviations as used in the aforementioned formula. Compounds were considered a “hit” when z-scoreMRSA+ ≤ -2 and z-scoreHeLa ≥ -3 for cell count. In cases where compounds were screened twice, the average values were used to select hit compounds.
# HeLa cells = experiment: Compound screen by flow cytometry: HeLa cell count as surrogate readout of cell viability (z-scoreHeLa); assay type: cell-based, human
# Procedure: as §1, §2
# To minimize the possibility that the presence of extreme values on a plate affected the z-scores, raw values that deviated two-fold from the negative controls were excluded when calculating plate means and standard deviations as used in the aforementioned formula. Compounds were considered a “hit” when z-scoreMRSA+ ≤ -2 and z-scoreHeLa ≥ -3 for cell count. In cases where compounds were screened twice, the average values were used to select hit compounds.
Compound,%GFP+ rep 1 (intracellular MRSA),%GFP+ rep 2 (intracellular MRSA),%GFP+ rep 3 (intracellular MRSA),z-scoreMRSA+ mean (intracellular MRSA),z-scoreMRSA+ rep 1 (intracellular MRSA),z-scoreMRSA+ rep 2 (intracellular MRSA),z-scoreMRSA+ rep 3 (intracellular MRSA),hit (intracellular MRSA),effect (intracellular MRSA),cell count rep 1 (HeLa cells),cell count rep 2 (HeLa cells),cell count rep 3 (HeLa cells),cell death (HeLa cells),z-scoreHeLa mean (HeLa cells),z-scoreHeLa rep 1 (HeLa cells),z-scoreHeLa rep 2 (HeLa cells),z-scoreHeLa rep 3 (HeLa cells)
Fc1ccc(-c2ncn(C3CCNCC3)c2-c2ccnc(Oc3cccc(F)c3)n2)cc1 [SB-251505],15.0%,15.3%,16.6%,-0.95,-0.91,-0.97,-0.97,No,No,–,–,–,–,–,–,–,–
Fc1ccc(-c2ncn(C3CCNCC3)c2-c2ccnc(Oc3ccc(Cl)cc3)n2)cc1 [SB-278539],13.4%,15.5%,16.2%,-1.14,-1.41,-0.91,-1.09,No,No,–,–,–,–,–,–,–,–
Cc1ccc(C)c(Oc2nccc(-c3c(-c4ccc(F)cc4)ncn3C3CCNCC3)n2)c1 [SB-284852-BT],–,–,–,–,–,–,–,–,–,26025,26957,22542,No,0.10,-0.71,0.29,0.70
Cc1cc(C)cc(Oc2nccc(-c3c(-c4ccc(F)cc4)ncn3C3CCNCC3)n2)c1 [SB-284851-BT],–,–,–,–,–,–,–,–,–,26737,41520,48762,No,1.19,1.00,1.26,1.31
Cc1cnc(N)c(/C=C/c2cncc(C(=O)NCCc3ccc(Cl)cc3Cl)c2)c1 [GSK190937A],17.3%,19.0%,19.5%,-0.04,-0.18,0.14,-0.09,No,No,–,–,–,–,–,–,–,–
COc1ccccc1C1=C(Nc2ccc(O)c(Cl)c2)C(=O)NC1=O [SB-381904],16.9%,18.3%,18.4%,-0.26,-0.30,-0.07,-0.42,No,No,–,–,–,–,–,–,–,–
